In patent US4518588A, “Process for the preparation of an inclusion complex of N-(1--phenylethyl)-3,3-diphenylpropylamine and the hydrochloride thereof respectively with cyclodextrin” (priority 1981, dated 1985):
Values joined by “and” are separate entries in the source; they are usually repeats but may differ in a detail not shown here. Equal entries are not always repeated. Where two headings read alike, the source gives them in different places.

Key:
[1] = Acute toxicity; conditions: mouse, in vivo, dose as phendiline active ingredient, 5% Tween 80; for LD50 at 24 h: observation time 24 hours
[2] = Solubility of phendiline hydrochloride in β-cyclodextrin solutions of various concentration; type: physicochemical; conditions: 37° C.; for solubility thermodynamic at 3 h: water with beta-cyclodextrin, phendiline equivalents; for β-cyclodextrin mmole / phendiline mmole: 3 hours
Procedure: 0.22 g. (0.6 mmole) of phendiline hydrochloride is stirred at 37° C. for 3 hours in 3 ml. of water and in β-cyclodextrin solutions of various concentration by a magnetic stirrer at 150 rot./min rate. The concentration of the dissolved phendiline hydrochloride is determined by spectrophotometry and expressed in phendiline equivalents.

[3] = Solubility in words; type: physicochemical
[4] = Resorption tests on Sartorius SM 16750 Resorption model, diffusion and resorption rate constants; type: in vitro ADME; conditions: in vitro; for diffusion constant (Kd) from the intestine: resorption from the intestine
Procedure: (§1) The in vitro tests were justified by the fact that the measurements are much more reproducible than by carrying out the tests in vivo.
The resorption tests were performed on a Sartorius SM 16750 Resorption model, the membranes used were suitable for modelling the resorption from the stomach and from the intestine. On the basis of the test results the diffusion (Kd) and the resorption rate constant (Ki) were calculated for the test substances.

[5] = Thermoanalytical assay; type: physicochemical
Procedure: Thermoanalytical assay of the product according to Example 1.
Phendiline starts to evaporate respectively to decompose at 150° C. and 98% mass change can be observed up to 250° C.

[6] = Determination of dissolved (MG) and resorbed (Mi) active ingredient on Sartorius SM 16751 type model; type: in vitro ADME; conditions: 100. minute; segments of the gastro-intestinal system, in vitro; FIG. 1
Description: as §1
The dissolution and the resorption are subsequent processes which depend greatly on each other. Under physiological conditions resorption is partially influenced by the pH relations at the place of the resorption and partially by the time spent by the pharmaceutical at the place of the resorption.
The average spent time in each segment of the gastro-intestinal system and the pH values are as follows:
The determination of the dissolved (MG) and the resorbed (Mi) active ingredient was performed on a Sartorius SM 16751 type Lose model [H. Stricker: Pharm. Ind. 33, 157 (1971); H. Sticker: Drugs in Germany 14, 93 (1971)].
The amount of the resorbed phendiline, phendiline-CD-complex as well as phendiline hydrochloride and phendiline-hydrochloride-CD-complex from the gastro-intestinal tract is shown in FIG. 2 where F stands for the resorbed amount of phendiline, F-CD stands for the resorbed amount of phendiline-cyclodextrine-complex, FHCl stands for the resorbed amount of phendiline-hydrochloride and FHCl-CD stands for the resorbed amount of phendiline-hydrochloride-cyclodextrine-complex.

[7] = β-cyclodextrin 15 mg./ml. (13.2 mmole/l.)
[8] = β-cyclodextrin 20 mg./ml. (17.6 mmole/l.)
[9] = β-cyclodextrin 25 mg./ml. (22.0 mmole/l.)
[10] = β-cyclodextrin 30 mg./ml. (26.4 mmole/l.)

With CC(NCCC(c1ccccc1)c1ccccc1)c1ccccc1.Cl (stereo not drawn) [phendiline hydrochloride, N-(1-phenylethyl)-3,3-diphenylpropylamine hydrochloride] the LD50 at 1 h ([1]; ip, intraperitoneal, observation time 1 hour) was 81.1 mg/kg, the LD50 at 24 h ([1]; po, per os) was 522 mg/kg and the solubility thermodynamic at 3 h [2, 7] was 4390 µg/mL and 13900 µM. For the same molecule, the solubility thermodynamic at 3 h [2, 8] was 5950 µg/mL and 18600 µM, the solubility thermodynamic at 3 h [2, 9] was 6940 µg/mL and 22000 µM and the solubility thermodynamic at 3 h [2, 10] was 7510 µg/mL and 23800 µM. For the same molecule, the “β-cyclodextrin mmole / phendiline mmole” value [2, 7] was 0.95, the “β-cyclodextrin mmole / phendiline mmole” value [2, 8] was 0.95 and the “β-cyclodextrin mmole / phendiline mmole” value [2, 9] was 1.00. For the same molecule, the “β-cyclodextrin mmole / phendiline mmole” value [2, 10] was 1.10, the solubility in water [3] was “extremely poor” and the “resorption rate constant (Ki) from the intestine” value [4] was 0.0049 min⁻¹. For the same molecule, the “diffusion constant (Kd) from the intestine” value [4] was 6.7 × 10^-4 cm^2 min^-1.
For CC(NCCC(c1ccccc1)c1ccccc1)c1ccccc1 (stereo not drawn) [phendiline, N-(1-phenylethyl)-3,3-diphenylpropylamine], the LD50 at 24 h ([1]; ip, intraperitoneal) was 47.5 mg/kg, the LD50 at 72 h ([1]; po, per os, observation time 72 hours) was 512 mg/kg and the “temperature at which it starts to evaporate respectively to decompose” value ([5]; thermoanalytical assay) was 150 °C. The mass change ([5]; up to 250° C.) was 98%, the solubility in water [3] was “very poor” and the solubility in water ([3]; listed as Phendiline) was “not soluble in water”. For the same molecule, the amount dissolved [6] was 75 mg, the “resorption rate constant (Ki) from the intestine” value [4] was 0.0051 min⁻¹ and the “diffusion constant (Kd) from the intestine” value [4] was 6.9 × 10^-4 cm^2 min^-1.
In the case of Cyclodextrin, the decomposition temperature ([5]; thermoanalytical assay) is reported as 270 °C.
For β-cyclodextrin, the “temperature of melting with decomposition” value ([5]; thermoanalytical assay) was 300 °C.
